Assay results as given in patent US5750545A, “Triazole derivative and pharmaceutical use thereof” (The Green Cross Corporation, priority 1993, dated 1998).

How the values were obtained:
eosinophil = assay: Eosinophilia-Inhibitory Activity (Sephadex G-200 induced, bronchovesicular washing); type: in vivo; conditions: Rattus norvegicus, ip, 168 h, rats, 30 mg/kg intraperitoneally 10 minutes prior to each Sephadex administration (day 0, 2, 5), eosinophils at 7th day
Description: Rats weighing 250°-350 g were used (5 per group). The test method was a partial modification of the method reported by B. A. Spicer et al (Br. J. Pharmacol (1990), 101, 821). Sephadex G-200 having a particle size of 40°-120 micron was suspended in isotonic saline at 0.5 mg/ml and boiled for 5 hours on the administration day to allow swelling. The suspension was administered to the rats from the tail vein by 1 ml at day 0, day 2 and day 5. At the 7th day from the initiation of the administration, the rats were anesthetized with 25% urethane (5 ml/kg) and fixed at a dorsal position. A cut down tube was inserted into trachea and applied with a three-way cock at its end. A 5 ml plastic syringe was set on one end of the three-way cock, a 5 ml plastic syringe containing 6 units/ml heparin-PBS (37° C.) was set on the other end and the liquid was injected. Using the empty 5 ml plastic syringe, the liquid was inserted or sucked out three times. This set of operations were repeated three times and the liquid obtained was preserved on ice as a bronchovesicular washing (ca 12 ml). The obtained washing was centrifuged [1000 rpm (150 g)×5 min, 4° C.] and the supernatant thereof was removed by decantation. The residue was re-suspended in 500 μl of RPMI-1640 medium. The total leukocytes in the suspension was counted by Colter counter (Sysmex, MICROCELLCOUNTER CC-120). Hinkelmann's Solution (900 μl), which is an eosinophil count reagent, was added to 100 μl of the re-suspension for staining (1:9), and the proportion of eosinophil count relative to the leukocyte count in one microscopic field was determined using an optical microscope (NIKON, BIOPHOT Type 104). The drug (test compound) was intraperitoneally administered in a dose of 30 mg/kg 10 minutes prior to the respective administration of Sephadex. The control group was administered with an isotonic saline containing 1% Tween 80 and 1% dimethyl sulfoxide instead of the drug.
Eosinophilia-inhibitory activity was calculated from the following formula.

T lymphocytes = assay: Inhibitory action on T lymphocyte activation stimulated by concanavalin A ([3H]thymidine uptake); type: cell-based; conditions: mouse thymus T lymphocytes, 3 μg/ml concanavalin A, test drug 10 μM, read-out: growth-inhibitory activity, minus percentage figures relative to the control group (thymidine uptake)
Description: Inhibitory action on T lymphocyte activation stimulated by concanavalin A
The test was performed according to the method of Mishell, B. B. et al ["Cell Proliferation" in Selected Methods in Cellular Immunology, V, XXiX, W. H. Freeman Co., San Francisco, Calif. pp. 153-160, 1980].
T lymphocytes were isolated from mouse thymus by a conventional method and suspended in DMEM. The cells (5×10^6 cells/ml) were incubated at 37° C. for 12 hours in the presence of 3 μg/ml of concanavalin A. The test drug was added at 10 μM under these incubation conditions. After 12 hours of incubation, 2 μCi [3H]thymidine was added to each well and the well was incubated for 48 hours. After the incubation, the thymidine uptake was determined by a scintillation counter. The growth-inhibitory activity is shown in minus percentage figures relative to the figure of the control group.

| Compound | inhibition in vivo at 30 mg/kg (eosinophil) | inhibition at 10 µM (T lymphocytes) |
| --- | --- | --- |
| CNC(=S)n1ncnc1N [Compound A, 5-amino-1-[methylamino(thiocarbonyl)]-1H-1,2,4-triazole] | 88% | – |
| CNC(=S)n1nc(N)nc1N [Compound B, 3,5-diamino-1-[methylamino(thiocarbonyl)]-1H-1,2,4-triazole] | 53% | – |
| CNC(=S)n1nc(-c2ccc(C#N)cc2)nc1N [Compound C, 5-amino-3-(4-cyanophenyl)-1-[methylamino(thiocarbonyl)]-1H-1,2,4-triazole] | 87% | – |
| CNC(=S)n1nc(-c2ccc(Cl)cc2)nc1N [Compound D, 5-amino-3-(4-chlorophenyl)-1-[methylamino(thiocarbonyl)]-1H-1,2,4-triazole] | 87% | -52% |
| CNC(=S)n1nc(-c2ccc(OC)cc2)nc1N [Compound E, 5-amino-3-(4-methoxyphenyl)-1-[methylamino(thiocarbonyl)]-1H-1,2,4-triazole] | 70% | – |
| Cn1cnc2ncnn2c1=S [Compound F, 6-methyl-1,2,4-triazolo[1,5-a]-1,3,5-triazine-7(6H)-thione] | 58% | – |
| Cn1cnc2nc(-c3ccc(C#N)cc3)nn2c1=S [Compound G, 2-(4-cyanophenyl)-6-methyl-1,2,4-triazolo[1,5-a]-1,3,5-triazine-7(6H)-thione] | 79% | – |
| Cn1cnc2nc(-c3ccc(Cl)cc3)nn2c1=S [Compound H, 2-(4-chlorophenyl)-6-methyl-1,2,4-triazolo[1,5-a]-1,3,5-triazine-7(6H)-thione] | 83% | -60% |
| CNC(=S)n1nc(-c2cccc(Cl)c2)nc1N [Compound I, 5-amino-3-(3-chlorophenyl)-1-[methylamino(thiocarbonyl)]-1H-1,2,4-triazole] | 70% | – |
| CNC(=S)n1nc(-c2ccc(F)cc2)nc1N [Compound J, 5-amino-3-(4-fluorophenyl)-1-[methylamino(thiocarbonyl)]-1H-1,2,4-triazole] | 80% | – |
| CNC(=S)n1nc(-c2ccc(Br)cc2)nc1N [Compound K, 5-amino-3-(4-bromophenyl)-1-[methylamino(thiocarbonyl)]-1H-1,2,4-triazole] | 90% | -35% |
| CNC(=S)n1nc(-c2ccc(C(F)(F)F)cc2)nc1N [Compound L, 5-amino-1-[methylamino(thiocarbonyl)]-3-(4-trifluoromethylphenyl)-1H-1,2,4-triazole] | 88% | -37% |
| CNC(=S)n1nc(-c2ccc(-c3ccccc3)cc2)nc1N [Compound M, 5-amino-3-(4-phenylphenyl)-1-[methylamino(thiocarbonyl)]-1H-1,2,4-triazole] | 85% | – |
| CNC(=S)n1nc(-c2ccc(Cl)cc2Cl)nc1N [Compound N, 5-amino-3-(2,4-dichlorophenyl)-1-[methylamino(thiocarbonyl)]-1H-1,2,4-triazole] | 90% | – |
| CNC(=S)n1nc(-c2ccc(Cl)c(Cl)c2)nc1N [Compound O, 5-amino-3-(3,4-dichlorophenyl)-1-[methylamino(thiocarbonyl)]-1H-1,2,4-triazole] | 88% | – |
| CNC(=S)n1nc(-c2ccc(Cl)cc2OC)nc1N [Compound P, 5-amino-3-(4-chloro-2-methoxyphenyl)-1-[methylamino(thiocarbonyl)]-1H-1,2,4-triazole] | 85% | – |
| Cn1cnc2nc(-c3ccc(F)cc3)nn2c1=S [Compound Q, 2-(4-fluorophenyl)-6-methyl-1,2,4-triazolo[1,5-a]-1,3,5-triazine-7(6H)-thione] | 82% | – |
| Cn1cnc2nc(-c3ccc(Br)cc3)nn2c1=S [Compound R, 2-(4-bromophenyl)-6-methyl-1,2,4-triazolo[1,5-a]-1,3,5-triazine-7(6H)-thione] | 88% | -58% |
| Cn1cnc2nc(-c3ccc(C(F)(F)F)cc3)nn2c1=S [Compound S, 6-methyl-2-(4-trifluoromethylphenyl)-1,2,4-triazolo[1,5-a]-1,3,5-triazine-7(6H)-thione] | 89% | -36% |
| Cn1cnc2nc(-c3ccc(-c4ccccc4)cc3)nn2c1=S [Compound T, 6-methyl-2-(4-phenylphenyl)-1,2,4-triazolo[1,5-a]-1,3,5-triazine-7(6H)-thione] | 80% | – |
| Cn1cnc2nc(-c3ccc(Cl)cc3Cl)nn2c1=S [Compound U, 2-(2,4-dichlorophenyl)-6-methyl-1,2,4-triazolo[1,5-a]-1,3,5-triazine-7(6H)-thione] | 85% | -22% |
| Cn1cnc2nc(-c3ccc(Cl)c(Cl)c3)nn2c1=S [Compound V, 2-(3,4-dichlorophenyl)-6-methyl-1,2,4-triazolo[1,5-a]-1,3,5-triazine-7(6H)-thione] | 87% | -40% |
